US20050209237A1, “Method for decreasing capillary permeability in the retina” (priority 2002, published 2005)

Test system: BRB breakdown in mice exposed to vascular endothelial growth factor (VEGF)
Assay: BRB breakdown quantitated with intraperitoneal [3H]-mannitol tracer in mice after intravitreal VEGF
Type: in vivo, C57B/J6 mice
Conditions: gavage 50 mg/kg for three days prior to intravitreal VEGF 10^-6 M, [3H]-mannitol tracer at 6 hours
Excerpt: Intraperitoneally administered radiolabeled tracer can be used to quantitate BRB breakdown in mice exposed to vascular endothelial growth factor (VEGF). This technique is particularly advantageous with neonatal mice because of the technical difficulty involved with intravascular injections. Also, the comparison of retinas from injected and control eyes to tissues without a blood-tissue barrier corrects for variations in the amount of isotope injected or absorbed into the circulation.
Ten six- to seven-week-old C57B/J6 mice (Jackson Labs, Bar Harbor, Me.) are weighed to determine the proper dosage of anesthesia and tracer required. Mice are anesthetized with a solution containing 25 mg/kg ketamine (Ketaset; Fort Dodge Animal Health, Fort Dodge, Iowa) and 4 mg/kg rompun (Tranquived; Vedco, St. Joseph, Mo.) diluted 1:10 in saline prior to injection. […]
One ml NCSII (Amersham, Chicago, Ill.) solubilizing solution is added to each vial and the vials are incubated overnight in a 50° C. water bath. […] The specimens are counted on a Wallace 1409 Liquid Scintillation Counter (Gaithersburg, :Md.).
The counts per mg tissue are determined for treated (with 4-pyridylmethyl-phthalazine derivative) and untreated retina, lung, and kidney. Ratios of these values for treated or untreated retina/lung or kidney and for lung/kidney are calculated. […]

## 4-pyridylmethyl-phthalazine
VEGF/vehicle-treated 0.6806±0.1060, Student-t value 0.0201
  retina/kidney ratio: 0.3881±0.0436
VEGF/vehicle-treated 0.8785±0.0946, Student-t value 0.0467
  retina/lung ratio (cpm per mg of retina/cpm per mg of lung): 0.6326±0.0656
